For 25 compounds, T/C results are on record in PubChem BioAssay AID330 (DTP/NCI, 2004).

The assay relates to P388 leukemia ip, CD2F1 mice, survival T/C. The experiment in a line: NCI In Vivo Anticancer Drug Screen. Data for tumor model P388 Leukemia (intraperitoneal) in CD2F1 (CDF1) mice. As to conditions: endpoint: median survival time, higher = longer survival. In outline: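 Mice carrying the transplanted tumor received test compound or vehicle. Survival was recorded in each group, and the value is the treated-group measurement divided by that of the vehicle-treated control group.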

Where [1] appears, read: dose: 50.0 mg/kg/injection, schedule: Q01DX005 (ip), vehicle: Klucel (hydroxypropylcellulose) (HPC).
Where [2] appears, read: dose: 100.0 mg/kg/injection, schedule: Q01DX005 (ip), vehicle: Klucel (hydroxypropylcellulose) (HPC).
Setting [3] is: dose: 200.0 mg/kg/injection, schedule: Q01DX005 (ip), vehicle: Klucel (hydroxypropylcellulose) (HPC).
The mark [4] stands for this setting: dose: 60.0 mg/kg/injection, schedule: Q01DX005 (ip), vehicle: saline with Tween-80.
Where [5] appears, read: dose: 120.0 mg/kg/injection, schedule: Q01DX005 (ip), vehicle: saline with Tween-80.
Setting [6] is: dose: 240.0 mg/kg/injection, schedule: Q01DX005 (ip), vehicle: saline with Tween-80.
Setting [7] is: dose: 12.5 mg/kg/injection, schedule: Q01DX009 (ip), vehicle: saline with Tween-80.
Where [8] appears, read: dose: 25.0 mg/kg/injection, schedule: Q01DX009 (ip), vehicle: saline with Tween-80.
The mark [9] stands for this setting: dose: 50.0 mg/kg/injection, schedule: Q01DX009 (ip), vehicle: saline with Tween-80.
Setting [10] is: dose: 100.0 mg/kg/injection, schedule: Q01DX009 (ip), vehicle: saline with Tween-80.
[11] abbreviates: dose: 6.25 mg/kg/injection, schedule: Q01DX009 (ip), vehicle: saline with Tween-80.
Setting [12] is: dose: 200.0 mg/kg/injection, schedule: Q01DX009 (ip), vehicle: saline with Tween-80.
Where [13] appears, read: dose: 100.0 mg/kg/injection, schedule: Q04DX003 (ip), vehicle: saline with Tween-80.
The mark [14] stands for this setting: dose: 200.0 mg/kg/injection, schedule: Q04DX003 (ip), vehicle: saline with Tween-80.
Setting [15] is: dose: 400.0 mg/kg/injection, schedule: Q04DX003 (ip), vehicle: saline with Tween-80.
The mark [16] stands for this setting: dose: 25.0 mg/kg/injection, schedule: Q01DX005 (ip), vehicle: saline with Tween-80.
Where [17] appears, read: dose: 50.0 mg/kg/injection, schedule: Q01DX005 (ip), vehicle: saline with Tween-80.
Where [18] appears, read: dose: 15.0 mg/kg/injection, schedule: Q01DX005 (ip), vehicle: saline with Tween-80.
Setting [19] is: dose: 30.0 mg/kg/injection, schedule: Q01DX005 (ip), vehicle: saline with Tween-80.
Setting [20] is: dose: 100.0 mg/kg/injection, schedule: Q01DX005 (ip), vehicle: saline with Tween-80.
Where [21] appears, read: dose: 7.5 mg/kg/injection, schedule: Q01DX005 (ip), vehicle: saline with Tween-80.

SMILES strings stand for the structures. Values joined by “and” are separate entries in the source; they are usually repeats but may differ in a detail not shown here. Identical values can stand only once. Toxic doses and inconclusive results are not listed.

As for `O=c1c2sc3ccccc3c2ncn1C1CCCCC1`, the T/C was 98 % of control under setting [1], 100 % of control under setting [2] and 93 % of control under setting [3].
For the compound `CCCOCCOCCOC(C)Oc1ccc(OC)cc1` (configuration not stated), the T/C reads like this: under setting [4], 105 % of control; under setting [5], 104 % of control; under setting [6], 104 % of control.
With `CCCCCCCCCCCOC(=O)c1ccc(O)cc1`, the T/C under setting [7] is 98 % of control; the T/C under setting [8] was 102 % of control; the T/C under setting [9] is 105 % of control and 106 % of control; the T/C under setting [10] is 103 % of control.
With `CC1CN1C(=O)c1cc(C(=O)N2CC2C)cc(C(=O)N2CC2C)c1` (configuration not stated), under setting [11], the T/C was 113 % of control.
With `N#CC(C(=O)CCc1nc2ccccc2[nH]1)c1nc2ccccc2s1` (configuration not stated), the T/C runs as follows: under setting [4], 102 % of control; under setting [5], 100 % of control; under setting [6], 105 % of control.
Take `CCOC(=O)c1sc(N)nc1C`: the T/C is, setting by setting: (dose: 9.0 mg/kg/injection, schedule: Q01DX009 (ip), vehicle: saline with Tween-80) 111 % of control; (dose: 18.0 mg/kg/injection, schedule: Q01DX009 (ip), vehicle: saline with Tween-80) 90 % of control; under setting [8], 105 % of control; (dose: 36.0 mg/kg/injection, schedule: Q01DX009 (ip), vehicle: saline with Tween-80) 99 % of control; under setting [9], 106 % of control and 112 % of control and 113 % of control; under setting [10], 108 % of control and 115 % of control and 97 % of control. In addition, the T/C under setting [12] is 102 % of control and 112 % of control.
Regarding `Cc1cc(Cl)cc(S(=O)(=O)O)c1N`, the T/C by setting is: (dose: 100.0 mg/kg/injection, schedule: Q04DX003 (ip), vehicle: Klucel (hydroxypropylcellulose) (HPC)) 95 % of control; (dose: 200.0 mg/kg/injection, schedule: Q04DX003 (ip), vehicle: Klucel (hydroxypropylcellulose) (HPC)) 97 % of control; (dose: 400.0 mg/kg/injection, schedule: Q04DX003 (ip), vehicle: Klucel (hydroxypropylcellulose) (HPC)) 97 % of control.
In the case of `NC1CONC1=O` (configuration not stated), the T/C runs as follows: under setting [10], 109 % of control; under setting [13], 100 % of control; under setting [12], 100 % of control; under setting [14], 109 % of control; (dose: 400.0 mg/kg/injection, schedule: Q01DX009 (ip), vehicle: saline with Tween-80) 100 % of control; under setting [15], 109 % of control.
On to `O=c1[nH]cc(Cn2cnc3ncccc3c2=O)c(=O)[nH]1`, for which the T/C (dose: 100.0 mg/kg/injection, schedule: Q01DX001 (ip), vehicle: suspension in saline) was 93 % of control; the T/C (dose: 200.0 mg/kg/injection, schedule: Q01DX001 (ip), vehicle: suspension in saline) is 105 % of control; the T/C (dose: 400.0 mg/kg/injection, schedule: Q01DX001 (ip), vehicle: suspension in saline) is 112 % of control.
As for `O=CNC(CSSCC(NC=O)C(=O)O)C(=O)O` (configuration not stated), the T/C by setting is: under setting [1], 101 % of control; under setting [2], 101 % of control; under setting [13], 113 % of control; under setting [3], 95 % of control; under setting [14], 90 % of control; under setting [15], 90 % of control.
Regarding `CCOC(=O)c1ccc(NC(=O)N(C2CCCCC2)C2CCCCC2)cc1`, the T/C reads like this: (dose: 3.75 mg/kg/injection, schedule: Q01DX005 (ip), vehicle: Klucel (hydroxypropylcellulose) (HPC)) 93 % of control; (dose: 7.5 mg/kg/injection, schedule: Q01DX005 (ip), vehicle: Klucel (hydroxypropylcellulose) (HPC)) 94 % of control; (dose: 15.0 mg/kg/injection, schedule: Q01DX005 (ip), vehicle: Klucel (hydroxypropylcellulose) (HPC)) 89 % of control; (dose: 240.0 mg/kg/injection, schedule: Q01DX005 (ip), vehicle: Klucel (hydroxypropylcellulose) (HPC)) 87 % of control.
With `O=[N+]([O-])c1ccc(C=C2C(Cl)=C(Cl)C(Cl)=C2Cl)cc1`, the T/C runs as follows: under setting [11], 91 % of control; under setting [7], 100 % of control.
Take `COc1ccc2c(c1)CC[C@@H]1[C@@H]2CC[C@]2(C)C(=O)/C(=C/C=C/N(C)C)C[C@@H]12`: the T/C is, setting by setting: (dose: 12.5 mg/kg/injection, schedule: Q01DX005 (ip), vehicle: saline with Tween-80) 90 % of control; under setting [16], 91 % of control; under setting [17], 87 % of control and 89 % of control.
As to `Nc1nc(N)c2nc(CNc3ccc(C(=O)NC(CC(=O)O)C(=O)O)cc3)cnc2n1` (configuration not stated), the T/C runs as follows: under setting [7], 150 % of control; under setting [9], 95 % of control; (dose: 66.0 mg/kg/injection, schedule: Q04DX003 (ip), vehicle: saline with Tween-80) 112 % of control; under setting [14], 90 % of control.
Regarding `Nc1[nH]c(=O)ncc1-c1cccc(Cl)c1`, the T/C is, setting by setting: under setting [18], 103 % of control; under setting [19], 104 % of control; under setting [4], 106 % of control and 96 % of control.
With `CC(C)=CC(C(=O)C1CC1)C(CC(=O)C1CC1)C(C)C` (configuration not stated), the T/C was 99 % of control under setting [16], 92 % of control under setting [17] and 92 % of control under setting [20].
Turning to `C1CC[N-]CC1.C1CC[N-]CC1.[Cl][Cd][Cl]`, the T/C (dose: 0.2 mg/kg/injection, schedule: Q01DX009 (ip), vehicle: water) was 95 % of control; the T/C (dose: 0.39 mg/kg/injection, schedule: Q01DX009 (ip), vehicle: water) was 96 % of control; the T/C (dose: 0.78 mg/kg/injection, schedule: Q01DX009 (ip), vehicle: other) was 90 % of control; the T/C (dose: 0.78 mg/kg/injection, schedule: Q01DX009 (ip), vehicle: water) was 98 % of control; the T/C (dose: 1.56 mg/kg/injection, schedule: Q01DX009 (ip), vehicle: other) was 90 % of control; the T/C (dose: 3.13 mg/kg/injection, schedule: Q01DX009 (ip), vehicle: other) is 93 % of control.
`CCCCCCCC/C=C/CC1CCCC(C)N1` (configuration not stated) (tested in a mixture with another compound): the T/C is 100 % of control under setting [21]; 100 % of control under setting [18]; 98 % of control and 102 % of control under setting [19].
Take `O=C(c1ccccc1)c1ccc2n[se]nc2c1`: the T/C was 100 % of control (dose: 3.75 mg/kg/injection, schedule: Q01DX005 (ip), vehicle: saline with Tween-80); 87 % of control under setting [21]; 97 % of control under setting [18].
On to `CN(C)c1ccc(C=NCCCN=Cc2ccc(N(C)C)cc2)cc1`, for which the T/C under setting [10] is 104 % of control.
`CN(/N=C/c1ccccc1)C(N)=Nc1ccccc1`: the T/C reads like this: under setting [17], 119 % of control; under setting [20], 107 % of control; (dose: 200.0 mg/kg/injection, schedule: Q01DX005 (ip), vehicle: saline with Tween-80) 104 % of control.
Take `O=C(/C=C/c1ccc(O)cc1)c1ccccc1`: the T/C runs as follows: (dose: 50.0 mg/kg/injection, schedule: Q04DX003 (ip), vehicle: saline with Tween-80) 105 % of control and 94 % of control; under setting [13], 98 % of control and 105 % of control; under setting [14], 103 % of control and 105 % of control; under setting [15], 105 % of control.
In the case of `CS(=O)(=O)C(Cl)(Cl)Cl`, the T/C reads like this: under setting [4], 105 % of control; under setting [5], 107 % of control; under setting [6], 112 % of control.
`C[n+]1ccccc1C(=O)O`: the T/C was 102 % of control (dose: 25.0 mg/kg/injection, schedule: Q01DX009 (ip), vehicle: saline); 98 % of control (dose: 50.0 mg/kg/injection, schedule: Q01DX009 (ip), vehicle: saline); 103 % of control (dose: 100.0 mg/kg/injection, schedule: Q01DX009 (ip), vehicle: saline); 92 % of control (dose: 200.0 mg/kg/injection, schedule: Q01DX009 (ip), vehicle: saline).
Take `CCN(CC)CCCC(C)Nc1nncc2cc(Cl)ccc12` (configuration not stated): the T/C is, setting by setting: (dose: 50.0 mg/kg/injection, schedule: Q01DX005 (ip), vehicle: saline) 95 % of control; (dose: 100.0 mg/kg/injection, schedule: Q01DX005 (ip), vehicle: saline) 97 % of control.
